Target: T1, chimeric α7-5HT3 ion channel (UniProt P23979+P36544, M226I/T225I)
T1 construct: expressed in transfected cells
Experiment: Cell-based FLIPR assay of agonist activity on the chimeric α7-5HT3 receptor (Calcium Green fluorescence, intracellular calcium)
Conditions: SH-EP1 cells expressing chimeric α7-5HT3 ion channel
Excerpt: The cDNA encoding the N-terminal 201 amino acids from the human α7 nAChR that contain the ligand binding domain of the ion channel was fused to the cDNA encoding the pore forming region of the mouse 5HT3 receptor as described by Eisele J L, et al., Chimacric nicotinic-serotonergic receptor combines distinct ligand binding and channel specificities, Nature (1993), December 2;366(6454):479–83, and modified by Groppi, et al., WO 00/73431. The chimeric α7–5HT3 ion channel was inserted into pGS 175 and pGS 179 which contain the resistance genes for G-418 and hygromycin B, respectively. […]
To assay the activity of the α7–5HT3 ion channel, cells expressing the channel were plated into each well of either a 96 or 384 well dish (Corning #3614) and grown to confluence prior to assay. […] The activity of compounds on the chimeric α7–5HT3 ion channel was analyzed on FLIPR. […] Fluorescent emission was measured above 525 nanometers with an appropriate F-stop to maintain a maximal signal to noise ratio. Agonist activity of each compound was measured by directly adding the compound to cells expressing the chimeric α7-5HT3 ion channel and measuring the resulting increase in intracellular calcium that is caused by the agonist-induced activation of the chimeric ion channel. […]

T1 sequence (P36544+P23979 fused P36544:T225I/P36544:M226I): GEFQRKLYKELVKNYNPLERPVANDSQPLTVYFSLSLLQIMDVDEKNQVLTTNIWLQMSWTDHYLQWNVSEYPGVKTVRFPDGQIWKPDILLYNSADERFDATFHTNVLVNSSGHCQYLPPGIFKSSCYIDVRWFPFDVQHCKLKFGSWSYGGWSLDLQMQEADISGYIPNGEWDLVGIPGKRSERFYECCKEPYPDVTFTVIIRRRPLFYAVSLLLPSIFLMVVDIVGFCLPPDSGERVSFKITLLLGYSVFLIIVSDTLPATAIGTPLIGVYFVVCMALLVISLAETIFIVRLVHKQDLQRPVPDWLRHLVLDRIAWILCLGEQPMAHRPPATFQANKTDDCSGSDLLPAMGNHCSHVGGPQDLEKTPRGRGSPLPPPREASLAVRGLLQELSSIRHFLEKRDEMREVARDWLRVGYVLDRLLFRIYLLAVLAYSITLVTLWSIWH

Cl.O=C(N[C@H]1CN2CCC1CC2)c1ccc2cccc(O)c2n1 [Example 8, N-[(3R)-1-azabicyclo[2.2.2]oct-3-yl]-8-hydroxyquinoline-2-carboxamide hydrochloride]
EC50 (effective concentration needed to cause a 50% maximal increase in intracellular calcium): inactive

Source: patent US7001900B2, “Azabicyclic compounds for the treatment of disease” (Pfizer Inc., priority 2002, dated 2006)
